Reference: patent US20110230431A1, “FOSFOMYCIN/TOBRAMYCIN COMBINATIONS FOR THE TREATMENT AND PREVENTION OF OPHTHALMIC, OTOLOGICAL AND DERMATOLOGICAL INFECTIONS” (Gilead Sciences, Inc., priority 2008, published 2011)
Read-outs that look alike come from different tables or passages of the source.

Columns and labels:
S. aureus = format: cell-based, Staphylococcus aureus
Procedure: (§1) Development of resistance after a single exposure to antibiotic was determined for both clinical and reference isolates of P. aeruginosa, S. aureus, and E. coli. Late Log-phase cultures were centrifuged at 1,400×g at room temperature for 20 min and the cell pellets resuspended in CAMHB. […] The culture plates were incubated at 37° C. for 48 h and the number of colonies on each plate was enumerated manually. The spontaneous mutation frequency (SMF) resulting in antibiotic resistance was calculated by dividing the number of bacteria growing at the defined antibiotic concentration by the number of bacteria in the inoculum (Martinex, J L, Antimicrob Agents Chemother 2000; 44 (1):1771-1777).

P. aeruginosa = format: cell-based, Pseudomonas aeruginosa
Procedure: as §1

P. aeruginosa ATCC 27853 = assay: Tobramycin uptake studies (3H-tobramycin); format: cell-based, Pseudomonas aeruginosa; details: 10 μg/mL fosfomycin, 3H-tobramycin 2.3 μg/mL, FIG. 7
Procedure: The effects of fosfomycin uptake on tobramycin uptake were determined by measuring uptake of ^3H-tobramycin. A single colony of P. aeruginosa ATCC 27853 was inoculated into 5 mL nutrient broth (NB) (Difco & BBL; Sparks, Md.) and grown overnight at 37° C. with shaking (250 rpm). […] Five milliliter volumes were filtered through 0.45 μm nitrocellulose membrane filters (Whatman Inc., Florham Park, N.J.), pre-soaked with 410 mM MgCl2 (VWR). […] Data were expressed in CPM and represent the mean±SD of four independent experiments. Statistical differences were evaluated by the Student's t-test.

[1] = P. aeruginosa ATCC 27853, 4× MIC
[2] = P. aeruginosa ATCC 27853, 8× MIC
[3] = P. aeruginosa ATCC 27853, 16× MIC

Which results are given for C[C@@H]1O[C@@H]1P(=O)(O)O [Fosfomycin, fosfomycin disodium]?
Frequency of Resistance 4× MIC (S. aureus; S. aureus ATCC 29213, 4× MIC): 2.6 × 10^−8; Frequency of Resistance 8× MIC (S. aureus; S. aureus ATCC 29213, 8× MIC): 5.0 × 10^−8; Frequency of Resistance 16× MIC (S. aureus; S. aureus ATCC 29213, 16× MIC): <1.8 × 10^−10; Frequency of Resistance 4× MIC (S. aureus; S. aureus C051, 4× MIC): 3.0 × 10^−5; Frequency of Resistance 8× MIC (S. aureus; S. aureus C051, 8× MIC): 3.6 × 10^−7; Frequency of Resistance 16× MIC (S. aureus; S. aureus C051, 16× MIC): 8.4 × 10^−6; Frequency of Resistance 4× MIC (S. aureus; S. aureus C053, 4× MIC): 7.7 × 10^−3; Frequency of Resistance 8× MIC (S. aureus; S. aureus C053, 8× MIC): 1.7 × 10^−7; Frequency of Resistance 16× MIC (S. aureus; S. aureus C053, 16× MIC): 4.3 × 10^−6; Frequency of Resistance 4× MIC (S. aureus; S. aureus C055, 4× MIC): 2.5 × 10^−6; Frequency of Resistance 8× MIC (S. aureus; S. aureus C055, 8× MIC): <4.3 × 10^−9; Frequency of Resistance 16× MIC (S. aureus; S. aureus C055, 16× MIC): 8.2 × 10^−6; Frequency of Resistance 4× MIC (S. aureus; S. aureus C057, 4× MIC): 2.1 × 10^−5; Frequency of Resistance 8× MIC (S. aureus; S. aureus C057, 8× MIC): 1.1 × 10^−7; Frequency of Resistance 16× MIC (S. aureus; S. aureus C057, 16× MIC): 2.0 × 10^−7; Frequency of Resistance 4× MIC (P. aeruginosa; [1]): 7.2 × 10^−4; Frequency of Resistance 8× MIC (P. aeruginosa; [2]): 1.1 × 10^−5; Frequency of Resistance 16× MIC (P. aeruginosa; [3]): 7.2 × 10^−5; Frequency of Resistance 4× MIC (P. aeruginosa; P. aeruginosa C002, 4× MIC): 6.5 × 10^−3; Frequency of Resistance 8× MIC (P. aeruginosa; P. aeruginosa C002, 8× MIC): 1.1 × 10^−4; Frequency of Resistance 16× MIC (P. aeruginosa; P. aeruginosa C002, 16× MIC): 4.6 × 10^−4; Frequency of Resistance 4× MIC (P. aeruginosa; P. aeruginosa C003, 4× MIC): 1.1 × 10^−6; Frequency of Resistance 8× MIC (P. aeruginosa; P. aeruginosa C003, 8× MIC): 9.0 × 10^−5; Frequency of Resistance 16× MIC (P. aeruginosa; P. aeruginosa C003, 16× MIC): 1.3 × 10^−4; Frequency of Resistance 4× MIC (P. aeruginosa; P. aeruginosa C013, 4× MIC): 9.2 × 10^−3; Frequency of Resistance 8× MIC (P. aeruginosa; P. aeruginosa C013, 8× MIC): 1.3 × 10^−5; Frequency of Resistance 16× MIC (P. aeruginosa; P. aeruginosa C013, 16× MIC): 1.3 × 10^−7; Frequency of Resistance 4× MIC (P. aeruginosa; P. aeruginosa C014, 4× MIC): 1.4 × 10^−4; Frequency of Resistance 8× MIC (P. aeruginosa; P. aeruginosa C014, 8× MIC): 1.3 × 10^−6; Frequency of Resistance 16× MIC (P. aeruginosa; P. aeruginosa C014, 16× MIC): 1.8 × 10^−6; increase in 3H-tobramycin uptake relative to the no-fosfomycin control (P. aeruginosa ATCC 27853): 170%

How did the “Frequency of Resistance 4× MIC” value (S. aureus; S. aureus ATCC 29213, 4× MIC) turn out when tobramycin sulfate was run?
The value was 1.6 × 10^−7.

And the “Frequency of Resistance 8× MIC” value (S. aureus; S. aureus ATCC 29213, 8× MIC)?
Its value is 3.9 × 10^−8.

And the “Frequency of Resistance 16× MIC” value (S. aureus; S. aureus ATCC 29213, 16× MIC)?
Its value is <1.8 × 10^−10.

What about the “Frequency of Resistance 4× MIC” value (S. aureus; S. aureus C051, 4× MIC) of the same compound?
Its value is 3.5 × 10^−6.

What about the “Frequency of Resistance 8× MIC” value (S. aureus; S. aureus C051, 8× MIC) of the same compound?
The value was 1.5 × 10^−8.

And the “Frequency of Resistance 16× MIC” value (S. aureus; S. aureus C051, 16× MIC)?
Its value is <2.0 × 10^−10.

What about the “Frequency of Resistance 4× MIC” value (S. aureus; S. aureus C053, 4× MIC) of the same compound?
The value was 2.0 × 10^−7.

And the “Frequency of Resistance 16× MIC” value (S. aureus; S. aureus C053, 16× MIC)?
Its value is <2.3 × 10^−10.

What about the “Frequency of Resistance 4× MIC” value (S. aureus; S. aureus C055, 4× MIC) of the same compound?
The value was 3.8 × 10^−7.

What about the “Frequency of Resistance 8× MIC” value (S. aureus; S. aureus C055, 8× MIC) of the same compound?
The value was <4.3 × 10^−9.

What about the “Frequency of Resistance 16× MIC” value (S. aureus; S. aureus C055, 16× MIC) of the same compound?
The value was <2.3 × 10^−10.

And the “Frequency of Resistance 4× MIC” value (S. aureus; S. aureus C057, 4× MIC)?
The value was 1.1 × 10^−6.

What about the “Frequency of Resistance 8× MIC” value (S. aureus; S. aureus C057, 8× MIC) of the same compound?
The value was <1.4 × 10^−10.

And the “Frequency of Resistance 16× MIC” value (S. aureus; S. aureus C057, 16× MIC)?
The value was <3.2 × 10^−10.

And the “Frequency of Resistance 4× MIC” value (P. aeruginosa; [1])?
The value was 3.0 × 10^−5.

What about the “Frequency of Resistance 8× MIC” value (P. aeruginosa; [2]) of the same compound?
Its value is 2.2 × 10^−7.

And the “Frequency of Resistance 16× MIC” value (P. aeruginosa; [3])?
The value was 1.6 × 10^−8.

What about the “Frequency of Resistance 4× MIC” value (P. aeruginosa; P. aeruginosa C002, 4× MIC) of the same compound?
The value was 1.1 × 10^−5.

And the “Frequency of Resistance 8× MIC” value (P. aeruginosa; P. aeruginosa C002, 8× MIC)?
Its value is 1.1 × 10^−7.

What about the “Frequency of Resistance 16× MIC” value (P. aeruginosa; P. aeruginosa C002, 16× MIC) of the same compound?
The value was 4.4 × 10^−8.

What about the “Frequency of Resistance 4× MIC” value (P. aeruginosa; P. aeruginosa C003, 4× MIC) of the same compound?
The value was 4.2 × 10^−5.

What about the “Frequency of Resistance 8× MIC” value (P. aeruginosa; P. aeruginosa C003, 8× MIC) of the same compound?
The value was 1.8 × 10^−7.

And the “Frequency of Resistance 16× MIC” value (P. aeruginosa; P. aeruginosa C003, 16× MIC)?
Its value is 7.2 × 10^−8.

What about the “Frequency of Resistance 4× MIC” value (P. aeruginosa; P. aeruginosa C013, 4× MIC) of the same compound?
The value was 1.4 × 10^−6.

What about the “Frequency of Resistance 8× MIC” value (P. aeruginosa; P. aeruginosa C013, 8× MIC) of the same compound?
The value was 3.7 × 10^−6.

What about the “Frequency of Resistance 16× MIC” value (P. aeruginosa; P. aeruginosa C013, 16× MIC) of the same compound?
The value was 8.2 × 10^−7.

And the “Frequency of Resistance 4× MIC” value (P. aeruginosa; P. aeruginosa C014, 4× MIC)?
Its value is 1.3 × 10^−6.

What about the “Frequency of Resistance 8× MIC” value (P. aeruginosa; P. aeruginosa C014, 8× MIC) of the same compound?
Its value is 1.1 × 10^−7.

And the “Frequency of Resistance 16× MIC” value (P. aeruginosa; P. aeruginosa C014, 16× MIC)?
Its value is 7.9 × 10^−7.
